Assay results: patent publication US20090192209A1, “Extended treatment of tumors through vessel occlusion with light activated drugs” (Light Sciences Oncology, Inc., priority 2004, published 2009)

Key:
[1] = tested on: R1 rhabdomyosarcoma tumor fragment implanted in liver; assay: PDT with single implanted LED light source proximal to tumor-feeding vessel in rat liver tumor model; type: in vivo, WAG/Rij rats
Protocol: A study was carried out to explore whether placement of a single light source in proximity to an identified tumor-feeding vessel could result in effective treatment of larger volumes of the organ in which there was neoplasia than might be achieved using direct PDT on tumor tissue itself.
Methods. The liver of each of 20 WAG/Rij rats was implanted with a R1 rhabdomyosarcoma tumor fragment. […] A 10×1.5 mm LED light source was implanted in the liver proximal to an upstream feeding vessel. LEDs were placed at a distance ≧5 mm from the tumor to ensure that the tumor itself was outside the direct illumination effect of the PDT. After a 10-minute drug-light interval, a light dose totaling 200 J/cm was administered. Animals were sacrificed at various time points, up to 10 days post treatment, and the extent and the mechanism of cell death was evaluated histologically using TUNEL [TdT-mediated dUTP-X nick end labeling] and EM [Electron Microscopy].

[2] = tested on: targeted tumors, including liver metastases arising from various primaries; settings: clinical tests, PDT; Cancer 2003; 98:1767-71; cited from earlier work

C=Cc1c(C)c2cc3nc(c(CC(=O)N[C@@H](CC(=O)O)C(=O)O)c4[nH]c(cc5nc(cc1[nH]2)C(C)=C5CC)c(C)c4C(=O)O)[C@@H](CCC(=O)O)[C@@H]3C [Talaporfin Sodium]
cell death in tumors implanted downstream from the targeted vessel (TUNEL, EM) ([1]; 5 mg/kg i.v. tail vein, 10-minute drug-light interval, 200 J/cm, LED ≧5 mm from tumor): cell death was consistently induced by a predominantly apoptotic mechanism | cell death in tumors similarly close to light source but vascularized by vessels other than the one targeted ([1]; 5 mg/kg i.v., 200 J/cm): no cell death was observed | time cell death first observed after PDT (TUNEL) ([1]; 5 mg/kg i.v., 200 J/cm, tumors downstream from targeted vessel): 2 days | closure of larger blood vessels / extended PDT effect ([1]; dosed at 2 mg/kg or less): not sufficient to close larger blood vessels | extent of PDT treatment effect ([1]; dosed at 2 mg/kg or less): restricted to the immediate vicinity of the illumination | objective response rates in targeted tumors [2]: 33-50%
